Source: ChEMBL document CHEMBL4680246, “Design, synthesis and biological evaluation of novel O-carbamoyl ferulamide derivatives as multi-target-directed ligands for the treatment of Alzheimer's disease” (Eur J Med Chem, 2020)

How the values were obtained:
[1] = Effect on tau protein level in mouse HT22 cells transfected with pRK5-GFP-Tau plasmid assessed as fluorescence intensity at 20 uM by fluorescence microscopy (Rvb <= 40.9); format: functional, HT-22
Cholinesterase = Cholinesterase (Equus caballus, UniProt P81908); experiment: Inhibition of equine serum BuChE using BTC as substrate after 15 mins by Ellman's method
[2] = Acute toxicity in Kunming mouse assessed as damage in heart at 50 to 1000 mg/kg measured after 7 days; format: organism-based; settings: in vivo, 168 h, dose 50-1000 mg/kg, time 7 day
[3] = Toxicity in Zebrafish assessed as mortality at 25 ug/ml relative to control; parameters: species or system Danio rerio; settings: in vivo, at 25 µg/mL
Danio rerio = species: Danio rerio; experiment: Antialzheimer activity in AlCl3-induced Zebrafish model of Alzheimer's disease assessed as increase in motility speed at 0.33 ug/ml relative to control; format: functional; settings: dose 0.33 µg/ml

Sequence of Cholinesterase (P81908 whole entry): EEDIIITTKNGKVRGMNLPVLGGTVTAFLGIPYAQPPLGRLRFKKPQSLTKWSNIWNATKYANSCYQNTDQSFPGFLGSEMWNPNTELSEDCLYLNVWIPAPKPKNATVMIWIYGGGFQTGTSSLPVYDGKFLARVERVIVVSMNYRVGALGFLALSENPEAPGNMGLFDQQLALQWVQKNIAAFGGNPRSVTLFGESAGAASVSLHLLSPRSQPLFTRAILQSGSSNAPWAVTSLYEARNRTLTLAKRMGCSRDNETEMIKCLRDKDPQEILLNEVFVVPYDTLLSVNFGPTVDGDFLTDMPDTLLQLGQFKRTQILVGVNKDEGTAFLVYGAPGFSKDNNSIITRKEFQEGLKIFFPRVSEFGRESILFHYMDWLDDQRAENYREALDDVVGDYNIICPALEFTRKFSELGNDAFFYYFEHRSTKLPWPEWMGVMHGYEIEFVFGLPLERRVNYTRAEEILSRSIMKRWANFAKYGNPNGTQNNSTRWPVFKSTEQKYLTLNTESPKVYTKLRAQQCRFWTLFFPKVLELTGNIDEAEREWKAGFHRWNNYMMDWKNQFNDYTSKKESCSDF

CCN(C)C(=O)Oc1ccc(/C=C/C(=O)N2CCc3ccccc3C2)cc1OC
Flu intensity [1]: 29.2 | IC50 (Cholinesterase): 920 nM | Activity [2]: Non-Toxic | mortality at 25 ug/ml [3]: 100% | Efficacy (Danio rerio): 79%
